Test results: paper PMC4364779, “IMD-4690, a Novel Specific Inhibitor for Plasminogen Activator Inhibitor-1, Reduces Allergic Airway Remodeling in a Mouse Model of Chronic Asthma via Regulating Angiogenesis and Remodeling-Related Mediators” (PLoS ONE, 2015)

Key:
human PAI-1 = human PAI-1 (Homo sapiens, UniProt P05121); experiment: Direct tPA assay of PAI-1 activity (fluorescent substrate Pyr-Gly-Arg-MCA); type: biochemical; conditions: recombinant tPA and PAI-1, read-out: IC50 of human PAI-1 inhibition
Protocol: (§1) Inhibitory effect of IMD-4690 on the activity of PAI-1 was measured by the direct tPA assay. Briefly, recombinant tPA and PAI-1 was mixed with IMD-4690, and then tPA substrate with fluorescent pigment (Pyr-Gly-Arg-MCA) was added in this mixture and incubated. The enzymatic activity was calculated by measuring the fluorescence. The inhibitory activity of IMD-4690 on other enzymes was measured with the similar method.

[1] = biological target: Anti-thrombin (AT3/SERPINC1) (Homo sapiens, UniProt P01008); experiment: SERPIN inhibition selectivity, similar enzymatic method; type: biochemical; conditions: Ser protease: Thrombin, factor Xa
Protocol: as §1

[2] = biological target: T1, Heparin Cofactor 2 (HC2/SERPIND1) (Homo sapiens, UniProt P05546); experiment: as above; type: biochemical; conditions: Ser protease: Thrombin
T1 sequence (P05546 20-499): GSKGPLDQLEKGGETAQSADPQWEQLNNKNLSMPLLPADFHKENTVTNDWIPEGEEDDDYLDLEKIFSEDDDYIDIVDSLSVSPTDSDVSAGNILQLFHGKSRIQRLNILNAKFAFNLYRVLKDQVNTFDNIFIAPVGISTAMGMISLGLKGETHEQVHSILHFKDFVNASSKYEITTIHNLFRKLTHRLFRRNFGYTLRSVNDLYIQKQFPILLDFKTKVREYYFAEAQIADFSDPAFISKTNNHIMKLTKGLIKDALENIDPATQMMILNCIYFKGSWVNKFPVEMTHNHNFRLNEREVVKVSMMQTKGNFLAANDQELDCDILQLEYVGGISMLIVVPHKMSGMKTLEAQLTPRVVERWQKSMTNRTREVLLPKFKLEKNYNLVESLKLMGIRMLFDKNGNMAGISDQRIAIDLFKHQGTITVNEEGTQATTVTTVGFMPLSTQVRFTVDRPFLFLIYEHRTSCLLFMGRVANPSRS
Protocol: as §1

PAI-2 (SERPINB2) = PAI-2 (SERPINB2) (Homo sapiens, UniProt P05120); experiment: as above; type: biochemical; conditions: Ser protease: uPA
Protocol: as §1

[3] = biological target: T2, PAI-3 (Protein C inhibitor/SERPINA5) (Homo sapiens, UniProt P05154); experiment: as above; type: biochemical; conditions: Ser protease: uPA
T2 sequence (P05154 26-406): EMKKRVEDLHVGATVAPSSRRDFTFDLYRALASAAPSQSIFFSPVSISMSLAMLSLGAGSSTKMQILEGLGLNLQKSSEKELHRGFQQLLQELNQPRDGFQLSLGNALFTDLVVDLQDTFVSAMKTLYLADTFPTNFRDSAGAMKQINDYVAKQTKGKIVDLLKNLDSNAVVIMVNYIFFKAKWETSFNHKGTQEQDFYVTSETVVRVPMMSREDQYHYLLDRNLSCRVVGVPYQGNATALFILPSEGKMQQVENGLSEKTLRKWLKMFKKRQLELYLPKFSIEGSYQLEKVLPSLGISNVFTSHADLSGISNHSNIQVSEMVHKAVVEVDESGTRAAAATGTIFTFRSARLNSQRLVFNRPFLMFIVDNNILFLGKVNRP
Protocol: as §1

[4] = biological target: T3, α1-anti-chymotrypsin (SERPINA3) (Homo sapiens, UniProt P01011); experiment: as above; type: biochemical; conditions: Ser protease: Chymotrypsin, Cathepsin G
T3 sequence (P01011 24-423): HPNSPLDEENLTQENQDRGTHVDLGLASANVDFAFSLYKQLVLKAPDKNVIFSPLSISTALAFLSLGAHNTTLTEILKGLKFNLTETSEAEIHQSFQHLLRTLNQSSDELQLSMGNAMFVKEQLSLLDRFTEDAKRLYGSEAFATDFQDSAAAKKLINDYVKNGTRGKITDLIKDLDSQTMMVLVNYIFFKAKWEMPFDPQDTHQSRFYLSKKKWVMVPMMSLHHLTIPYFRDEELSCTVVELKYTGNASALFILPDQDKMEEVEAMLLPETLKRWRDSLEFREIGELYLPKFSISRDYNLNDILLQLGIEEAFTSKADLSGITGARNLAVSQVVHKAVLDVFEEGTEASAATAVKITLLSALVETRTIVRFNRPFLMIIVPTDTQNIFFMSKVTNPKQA
Protocol: as §1

[5] = biological target: T4, α1-anti-plasmin (SERPINF2) (Homo sapiens, UniProt P08697); experiment: as above; type: biochemical; conditions: Ser protease: Plasmin
T4 sequence (P08697 40-491): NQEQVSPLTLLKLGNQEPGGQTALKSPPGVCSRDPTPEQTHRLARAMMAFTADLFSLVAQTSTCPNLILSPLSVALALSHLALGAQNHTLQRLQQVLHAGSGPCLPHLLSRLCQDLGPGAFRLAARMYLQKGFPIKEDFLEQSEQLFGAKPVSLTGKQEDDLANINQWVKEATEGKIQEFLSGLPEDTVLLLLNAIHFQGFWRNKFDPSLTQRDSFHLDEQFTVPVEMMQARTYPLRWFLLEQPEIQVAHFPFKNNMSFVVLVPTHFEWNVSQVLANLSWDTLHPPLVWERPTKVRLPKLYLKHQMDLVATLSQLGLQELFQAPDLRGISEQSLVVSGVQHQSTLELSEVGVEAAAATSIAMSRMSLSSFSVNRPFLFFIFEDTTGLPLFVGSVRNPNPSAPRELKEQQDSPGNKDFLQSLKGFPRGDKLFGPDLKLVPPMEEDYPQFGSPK
Protocol: as §1

[6] = biological target: α1-anti-trypsin (SERPINA1) (Homo sapiens, UniProt P01009); experiment: as above; type: biochemical; conditions: Ser protease: Trypsin, Neu-Elastase
Protocol: as §1

[7] = tested on: chronic allergen exposure model of bronchial asthma in mice; experiment: BALF cell classification, chronic Dp asthma model; type: in vivo, mouse; conditions: 10 mg/kg i.p., vs Dp/CMC mice
Protocol: All mice were sensitized on days 0 and 7 by intraperitoneal injections of 10 μg of Dp dissolved in 500 μL saline and mixed with 1mg of Alum (Sigma-Aldrich Japan). Dp-sensitized mice were challenged intranasally with 10 μg (10 μL) Dp in 70 μL saline on alternate days, 3 days per week, from days 14 to 67. The mice were also treated intraperitoneally with IMD-4690 (10 mg/kg) (Dp/IMD group) or CMC alone (Dp/CMC group) at the same day with Dp challenge. As a control, mice were challenged with saline and given CMC during this period (control/CMC group) (Fig. 1A). Each experiment was performed using six mice per group.
After measurement of lung resistance, the mice were euthanized humanely by cutting the axillary artery to obtain serum samples. Following sacrifice, bronchoalveolar lavage was performed twice with saline (0.8 mL) by using a soft cannula. After counting the cell numbers in the BALF using the automated cell viability analyzer Vi-Cell (Beckman Coulter, Calif., USA), BALF samples were cytospun onto glass slides and stained with Diff-Quick (Baxter, Miami, Fla., USA) for classification.

Chain of PAI-2 (SERPINB2) (P05120 whole entry): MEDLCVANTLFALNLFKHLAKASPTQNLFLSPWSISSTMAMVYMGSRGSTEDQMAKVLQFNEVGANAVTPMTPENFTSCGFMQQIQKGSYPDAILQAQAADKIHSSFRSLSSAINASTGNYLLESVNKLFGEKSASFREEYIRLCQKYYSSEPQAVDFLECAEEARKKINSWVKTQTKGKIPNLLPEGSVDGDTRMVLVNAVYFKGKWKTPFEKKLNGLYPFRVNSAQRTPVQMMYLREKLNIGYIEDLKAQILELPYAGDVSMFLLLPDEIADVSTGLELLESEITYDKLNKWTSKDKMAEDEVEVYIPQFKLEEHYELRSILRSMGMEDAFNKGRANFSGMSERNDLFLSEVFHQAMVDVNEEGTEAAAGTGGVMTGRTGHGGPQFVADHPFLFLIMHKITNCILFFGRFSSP
Chain of Anti-thrombin (AT3/SERPINC1) (P01008 33-464): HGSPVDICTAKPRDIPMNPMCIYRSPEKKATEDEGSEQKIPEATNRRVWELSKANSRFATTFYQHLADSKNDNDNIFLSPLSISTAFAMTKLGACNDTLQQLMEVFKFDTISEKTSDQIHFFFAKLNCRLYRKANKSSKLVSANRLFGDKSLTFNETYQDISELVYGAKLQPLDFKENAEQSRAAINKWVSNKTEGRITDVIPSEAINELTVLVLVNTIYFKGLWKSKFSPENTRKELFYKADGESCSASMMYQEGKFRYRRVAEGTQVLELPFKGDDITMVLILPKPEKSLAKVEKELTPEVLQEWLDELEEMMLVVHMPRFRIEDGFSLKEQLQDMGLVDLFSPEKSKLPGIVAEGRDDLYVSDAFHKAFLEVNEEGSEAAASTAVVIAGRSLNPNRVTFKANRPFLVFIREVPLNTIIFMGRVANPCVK
Chain of human PAI-1 (P05121 24-402): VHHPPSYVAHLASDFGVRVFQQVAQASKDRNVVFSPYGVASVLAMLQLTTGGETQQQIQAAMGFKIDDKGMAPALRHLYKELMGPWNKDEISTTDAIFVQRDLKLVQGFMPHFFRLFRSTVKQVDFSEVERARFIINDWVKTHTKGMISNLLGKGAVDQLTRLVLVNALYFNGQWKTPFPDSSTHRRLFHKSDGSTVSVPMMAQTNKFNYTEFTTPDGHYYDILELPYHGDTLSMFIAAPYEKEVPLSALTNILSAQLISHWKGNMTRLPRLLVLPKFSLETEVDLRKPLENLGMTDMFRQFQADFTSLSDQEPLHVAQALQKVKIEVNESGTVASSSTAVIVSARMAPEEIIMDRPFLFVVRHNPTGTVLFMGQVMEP
Chain of α1-anti-trypsin (SERPINA1) (P01009 25-418): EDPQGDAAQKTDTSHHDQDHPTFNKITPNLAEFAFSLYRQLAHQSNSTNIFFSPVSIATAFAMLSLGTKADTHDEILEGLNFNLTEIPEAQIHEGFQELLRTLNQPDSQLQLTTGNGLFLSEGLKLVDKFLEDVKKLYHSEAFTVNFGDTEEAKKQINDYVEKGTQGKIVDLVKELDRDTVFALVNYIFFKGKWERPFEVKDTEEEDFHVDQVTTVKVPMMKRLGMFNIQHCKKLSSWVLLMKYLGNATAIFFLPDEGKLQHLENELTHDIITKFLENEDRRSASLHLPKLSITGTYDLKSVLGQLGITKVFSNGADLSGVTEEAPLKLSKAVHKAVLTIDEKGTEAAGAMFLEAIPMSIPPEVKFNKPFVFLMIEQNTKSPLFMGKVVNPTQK

IC50 (human PAI-1): 1100 nM | IC50 [1]: > 25 µM | IC50 [2]: > 25 µM | IC50 (PAI-2 (SERPINB2)): > 25 µM | IC50 [3]: > 25 µM | IC50 [4]: > 25 µM | IC50 [5]: > 25 µM | IC50 [6]: > 25 µM
SMILES: CC(C)(C)c1ccc(Oc2cc(-c3ccc(OC(F)(F)F)cc3)ccc2OCC(=O)O)cc1 [IMD-4690, 2-[[3-(4-tert-Butylphenoxy)-4'-(trifluoromethoxy) [1,1'-biphenyl]-4-yl]oxy] acetic acid]
Number of eosinophils in BALF [7]: significantly decreased | Number of lymphocytes in BALF [7]: significantly decreased
